Key:
Type in all cases: cell-based
[1] = tested on: PANC-1 (pancreatic carcinoma); experiment: XTT cytotoxicity assay (Pharma Seed); details: Homo sapiens, 48 hours, 20, 10, 5, 1 μM, assay medium 1% FBS
Description: In this study, the cytotoxicity of several compounds of the present invention on lung and pancreatic cancer cell was evaluated.
PANC-1 (pancreatic carcinoma) culture medium: DMEM (High Glucose), supplemented with 10% FBS (heat inactivated), 2 mM L-glutamine, and 1% of Pen/Strep/Amp solution. PANC-1 assay medium: DMEM (High Glucose), supplemented with 1% FBS (heat inactivated), 2 mM L-glutamine, and 1% of Pen/Strep/Amp solution.
Each of the tested compounds was dissolved in DMSO to reach a stock concentration of 20 mM (and stored at −15° C.-−25° C. until use. Compound Ia28 (MW 484 g/mol, 3.05 mg total) was dissolved in 0.315 mL; compound Ia9 (MW 484 g/mol, 2.33 mg total) was dissolved in 0.241 mL; and compound Ia6 (MW 428.3 g/mol, 2.25 mg total) was dissolved in 0.262 mL.
On the day of incubation with the cells, each compound was diluted in DMSO to reach 2 mM, 1 mM, 0.5 mM, 0.1 mM stock concentrations (1:10, 1:20, 1:40 and 1:200), and each of these stocks was further diluted in assay medium 1:100 for final concentration of 20 μM, 10 μM, 5 μM, and 1 μM.
Part 1—cell number calibration. PANC-1 and A549 cells were each plated in a 96 well plate, in their culture medium, at various cell concentrations per well, in triplicates, and were allowed to attach for 24 hours. Thereafter, culture medium was discarded, assay medium was added, and the cells were incubated for additional 72 hours. Finally, assay medium was discarded, and fresh culture medium was added to the cells along with 50 μl XTT reagent. The OD was measured every two hours for 6 hours (three times).
The highest cells number/well were chosen for part 2 as follows: PANC-1 at 7,500 cells per well, A549 at 5000 cells per well.
Part 2—cells incubation with tested compounds. PANC-1 and A549 cells were plated in a 96 well plate, in their culture medium, at the optimal cell concentration according to the results from the previous section and were allowed to attach for 24 hours. Thereafter, the culture medium was discarded, and fresh assay medium was added to the cells, supplemented with elevating compound concentrations. Triton 0.1% was used as positive control for cell death. The cells were incubated for another 48 hours (TBD upon microscopic observation). Finally, fresh culture medium was added to the cells along with 50 μl XTT reagent. The OD was measured at the optimal time point according to the results in the previous section.

[2] = tested on: PANC-1, pancreas ductal carcinoma; experiment: CellTiter-Glo cell viability assay, cancer cell cytotoxicity/anti-proliferation panel (Chempartner); details: for IC50: Homo sapiens, PANC-1, 72 h, read-out: IC50 (absolute IC50)
Description: (§1) In this study, the biological activity of certain compounds of the present invention on cancer cell cytotoxicity/anti-proliferation panel was tested using the CellTiter-Glo® cell viability assay. The compounds were dissolved in DMSO to make 10 mM solution.
(§2) The cell lines tested were all selected from the Chempartner's cell collection and included: Caco-2 ATCC colon adenocarcinoma; TE-6 RIKEN esophagus, carcinoma; PC-3 ATCC prostate adenocarcinoma; T47D, breast ductal carcinoma; U251, brain human glioma; A549, lung carcinoma; OMP-2, multiple myeloma; SK-HEP-1, liver adenocarcinoma; PANC-1, pancreas ductal carcinoma; AsPC-1, pancreas, ductal carcinoma; and U-87 MG, brain glioblastoma.
(§3) For the assays described herein, absolute inhibition of cells growth (%) and absolute IC50 (Abs IC50; […]) were used to derive a value that can be used to compare results within and across runs in the same assay, as well as between different assays.
(§4) • a. Prepare complete medium: Add FBS and appropriate additives according to the information sheet provided by the vendor. Mix gently. • b. Check the cell name and complete medium and passage number marked on the flask. For adherent cell lines, refer to c to k. For suspension cell lines, refer to g to k. • c. Remove and discard culture medium using a vacuum pump. • d. Briefly rinse the cell layer with 0.25% (w/v) trypsin-0.038% (w/v) EDTA solution to remove all traces of serum that contains trypsin inhibitor. • e. Add 3.0 ml of trypsin-EDTA solution to flask and observe cells under an inverted microscope until cell layer is dispersed. • f. Add 8.0 ml of complete growth medium and aspirate cells by gently pipetting. • g. Transfer the cell suspension to a centrifuge tube and centrifuge at 800-1000 rpm for 3-5 minutes. • h. Discard the supernatant using a vacuum pump. • i. Add appropriate volume of complete medium. Suspend the cell pellet by gently pipetting. • j. Count the cell numbers with Vi-cell XR and adjust cells to appropriate density. • k. Add 100 μL of cell suspension to 96-well opaque-walled clear bottom plates according to the planned plate layout and place the plates in the CO2 incubator overnight. • l. Plate layout:
(§5) • Plate preparation of testing articles. 10 mM stock solution of each one of the compounds (provided as powder) was prepared in DMSO. […] 0.5 μL of each of the diluted compounds was transferred to the wells containing 100 μL of the culture medium. The total dilution was 200 fold. Cells were incubated with the compounds for 72 hours at 5% CO2, 37° C.
(§6) • Thaw the CellTiter-Glo buffer and equilibrate to room temperature prior to use. • Equilibrate the lyophilized CellTiter-Glo substrate to room temperature prior to use. • Transfer the appropriate volume of CellTiter-Glo buffer into the amber bottle containing CellTiter-Glo substrate to reconstitute the lyophilized enzyme/substrate mixture. This forms the CellTiter-Glo reagent. • Mix by gently vortexing, swirling or by inverting the contents to obtain a homogeneous solution. The CellTiter-Glo substrate should go into solution easily in less than one minute.
(§7) • Observe the cell morphology under an inverted microscope after corresponding treatment. • Equilibrate the plate and its contents to room temperature for approximately 30 minutes. • Add 100 μL of CellTiter-Glo reagent to the assay plate by Multidrop Combi instrument. • Mix contents for 10 minutes on an orbital shaker to induce cell lysis. • Allow the plate to incubate at room temperature for 10 minutes to stabilize luminescent signal. • Paste the clear bottom with white back seal and record luminescence with Enspire. The settings should be: Luminescence, measurement time 0.1 ms.
(§8) Inhibition (%) and absolute IC50 (μM) of each compound was calculated with XLFit curve fitting software that is compatible to Activity Base.

[3] = tested on: SK-HEP-1, liver adenocarcinoma; experiment: as above; details: Homo sapiens, SK-HEP1, 72 h; read-out: IC50 (absolute IC50)
Description: as §1, §2, §3, §4, §5, §6, §7, §8

[4] = tested on: U-87 MG, brain glioblastoma; experiment: as above; details: for IC50: Homo sapiens, 72 h, read-out: IC50 (absolute IC50)
Description: as §1, §2, §3, §4, §5, §6, §7, §8

[5] = tested on: A549, lung carcinoma; experiment: as above
Description: as §1, §2, §3, §4, §5, §6, §7, §8

[6] = tested on: AsPC-1, pancreas, ductal carcinoma; experiment: as above
Description: as §1, §2, §3, §4, §5, §6, §7, §8

[7] = tested on: T47D, breast ductal carcinoma; experiment: as above; details: T47D
Description: as §1, §2, §3, §4, §5, §6, §7, §8

[8] = tested on: TNF-α; experiment: LPS induced cytokine release assay, TNF-α by ELISA in PBMCs; details: human PBMCs; for TNF-α: 72 h, ELISA (LPS control 18.16)
Text: (§9) This study was aimed to test the effect of 12 compounds (THCA, Ia1, Ia5, Ia6, Ia9, Ia11, Ia15, Ia17, Ia24, Ia25, Ia27, and Ia28) on human peripheral blood mononuclear cells (PBMCs) challenged by lipopolysaccharide (LPS) through monitoring multiple inflammatory endpoints.
(§10) Blood samples were collected from healthy volunteers according to protocols that have been reviewed and approved by the Chempartner Institutional Ethic Committee (IEC) upon signing an Informed Consent Form (ICF).
(§11) Fresh PBMCs were isolated and seeded into 96-well plate, and diluted solutions of the tested compounds and 0.1 μg/mL LPS were then added (in triplicates). To serve as control, 3 wells with PBMCs only, 3 wells with 0.1 μg/mL LPS, and 2 wells with 1 μg/mL dexamethasone (Dex) and 0.1 μg/mL LPS were included. After 72 hours incubation, supernatant was collected for tumor necrosis factor-α (TNF-α) measurement by enzyme-linked immunosorbent assay (ELISA), and cell pellets were harvested for cell proliferation measurement by CellTiter-Glo® Luminescent Cell Viability Assay (CTG).
(§12) The human blood sample from an individual donor was diluted by the same volume of sterile phosphate buffered solution (PBS) and mixed sufficiently by gentle shake. 15 mL Lymphoprep™ medium was transferred into a new 50 mL centrifuge tube, and the diluted blood sample (30 mL) was then carefully added onto the surface of the medium, which consequently contained Ficoll 400 and blood in a volume ratio of 1:2. Four interfaces were observed after centrifugation, which are, from top to bottom, layers of plasma, mononuclear cells, Ficoll medium, and red blood cells (RBCs). Plasma was absorbed, and mononuclear cells were then transferred into another new sterile centrifuge tube. Then, sterile PBS buffer was added into the collected PBMCs for washing, at a volume ratio of 3:1. PBMCs were washed with 5-10 mL PBS twice before cell counting with cytometer. Cells were centrifuged at 350×g, for 10 min, at 20° C. with the acceleration (5) and deceleration (5) settings during the centrifugation. The cells were resuspended with RPMI 1640 complete medium (containing 10% FBS) for assay, and the density was adjusted with RPMI 1640 complete medium to the final concentration of 2E6 cells/mL. Cells suspension of the PBMCs (100 μL/well) were seeded into 96-well plate (#3903).
(§13) Diluted solutions of the tested compounds were prepared with RPMI 1640 complete medium according to the following layout. Compounds were prepared at 5-fold of concentration (50 μM), and then were diluted to the working concentration of 10 μM with RPMI 1640 complete medium and made 10-fold serially dilution (2 points). The diluted compounds (50 μL/well) were added to the indicated wells, and the plate was incubated at 37° C., 5% CO2, for 72 h.
(§14) LPS (0.1 μg/mL, 100 μL) was added into each well. Dex (1 μg/mL) was included as a positive control. Plate was incubated at 37° C., 5% CO2 for 72 h. Supernatant was collected to measure TNF-α by ELISA. Cell proliferation was detected by CTG.

[9] = tested on: human peripheral blood mononuclear cells (PBMCs); experiment: Cell proliferation of LPS-challenged PBMCs by CellTiter-Glo (CTG); details: human PBMCs, 72 h (LPS control 84.50)
Text: as §9, §10, §11, §12, §13, §14

[10] = 72 hours, compounds 10 μM starting, STS 2 μM starting, 10-pt, 3-fold dilution

CCCCCc1cc2c(c(O)c1C(=O)NCCN1CCCC1)[C@@H]1C=C(C)CC[C@H]1C(C)(C)O2 [Ia32, (6aR,0aR)-1-hydroxy-6,6,9-trimethyl-3-pentyl-N-(2-(pyrrolidin-1-yl)ethyl)-6a,7,8,10a-tetrahydro-6H-benzo[c]chromene-2-carboxamide]
IC50 [1]: 3.9 µM

CN[C@@H]1C[C@H]2O[C@@](C)([C@@H]1OC)n1c3ccccc3c3c4c(c5c6ccccc6n2c5c31)C(=O)NC4 [STS, Staurosporine, reference compound]
IC50 [2]: 0.04 µM
IC50 [3]: 0.07 µM
IC50 [4]: 0.082 µM

CCCCCc1cc2c(c(O)c1C(=O)N/N=C/c1ncccn1)[C@@H]1C=C(C)CC[C@H]1C(C)(C)O2 [Ia16, (6aR,10aR)-1-hydroxy-6,6,9-trimethyl-3-pentyl-N′-((E)-pyrimidin-2-ylmethylene)-6a,7,8,10a-tetrahydro-6H-benzo[c]chromene-2-carbohydrazide]
Inhibition ([5]; A549, 72 hours, compounds 10 μM starting, STS 2 μM starting, 10-pt, 3-fold dilution): 70.01%
IC50 ([5]; Homo sapiens, A549, 72 h, read-out: IC50 (absolute IC50)): 5.53 µM
Inhibition ([6]; AsPC-1, 72 hours, compounds 10 μM starting, STS 2 μM starting, 10-pt, 3-fold dilution): 67.70%
IC50 ([6]; Homo sapiens, ASPC1, 72 h, read-out: IC50 (absolute IC50)): 4.34 µM
IC50 [2]: 1.88 µM
Inhibition ([2]; PANC-1, 72 hours, compounds 10 μM starting, STS 2 μM starting, 10-pt, 3-fold dilution): 85.71%
IC50 ([7]; Homo sapiens, 72 h, read-out: IC50 (absolute IC50)): > 10 µM
Inhibition [7, 10]: 47.20%
Inhibition [4, 10]: 73.80%
IC50 [4]: 3.37 µM
IC50 [1]: 7 µM

CCCCCc1cc2c(c(O)c1C(=O)NCCn1ccnc1)[C@@H]1C=C(C)CC[C@H]1C(C)(C)O2 [Ia33, (6aR,0aR)—N-(2-(1H-imidazol-1-yl)ethyl)-1-hydroxy-6,6,9-trimethyl-3-pentyl-6a,7,8,10a-tetrahydro-6H-benzo[c]chromene-2-carboxamide]
IC50 [1]: 6.7 µM

C=C(C)[C@@H]1CCC(C)=C[C@H]1c1c(O)cc(CCCCC)c(C(=O)NCCN2CCCC2)c1O [Ia27, (1′R,2′R)-2,6-dihydroxy-5′-methyl-4-pentyl-2′-(prop-1-en-2-yl)-N-(2-(pyrrolidin-1-yl)ethyl)-1′,2′,3′,4′-tetrahydro-[1,1′-biphenyl]-3-carboxamide]
IC50 [1]: 7.5 µM
TNF-α ([8]; compound 1 μM + 0.1 μg/mL LPS): 36.23 pg/mL
TNF-α ([8]; compound 10 μM + 0.1 μg/mL LPS): 22.09 pg/mL
change of TNF-α expression in LPS-treated cells ([8]; tested concentrations of 1 M and 10 M (so in the source)): decreased TNF-α expression
CTG signal ([9]; compound 1 μM + 0.1 μg/mL LPS): 81.90 10^4
CTG signal ([9]; compound 10 μM + 0.1 μg/mL LPS): 78.67 10^4

CCCCCc1cc2c(c(O)c1C(=O)NCCNc1ncccn1)[C@@H]1C=C(C)CC[C@H]1C(C)(C)O2 [Ia31, (6aR,0aR)-1-hydroxy-6,6,9-trimethyl-3-pentyl-N-(2-(pyrimidin-2-ylamino)ethyl)-6a,7,8,10a-tetrahydro-6H-benzo[c]chromene-2-carboxamide]
IC50 [1]: 8.5 µM

— patent publication US20210087159A1, “TETRAHYDROCANNABINOLIC- CA[…] DERIVATIVES AND USES THEREOF” (AL&AM […]., priority 2018, published 2021)
